Marks after values point to notes of the source that are not given here.
Tested on: mice
Assay: Psychomotor agitation (observational behavioural test)
Format: in vivo
Experimental: The effects of (±)cis-4,4′-DMAR, (±)trans-4,4′-DMAR and their co-administration were investigated by a protocol widely used in studies of “safety pharmacology” for the preclinical characterization of new molecules in rodents. This protocol includes a series of observational behavioural tests carried out in a consecutive manner that monitor the animal responses up to 5 h after compound injections. In the present study, we reported the observation of physiological (sweating, salivation, core temperature) and neuro-behavioural (detection of psychomotor agitation, spontaneous and stimulated aggressiveness, convulsions) changes occurring in mice after injection of (±)cis-4,4′-DMAR, (±)trans-4,4′-DMAR and their co-administration. Before pharmacological treatment the mouse was placed on a square plate (30 cm× 30 cm) raised from the ground (20 cm) and left free to move on the plate for 10 min (habituation period). The animal was then injected with the vehicle, substances alone ((±)cis-4,4′-DMAR or (±)trans-4,4′-DMAR) or in cis + trans co-administration and placed on the plate. From this moment, the recording time of the physiological and neuro-behavioural responses started, and these were detected in 5-min sessions.
After the first 5 min, the animal was removed from the plate; the body core temperature was then measured, and the aggression tests were performed. The 5-min observation period was repeated at 15–30–60–90–120–180–240–300. Psychomotor agitation in the mouse was not simply related to an increase in spontaneous locomotion itself, but by an “unusual hyperactivity” which was characterised by rapid and sudden horizontal displacements in all directions, sustained turning behaviour, involuntary falls from the high plate during the evaluation of the tests, stereotyped movements and rearing activity. Mouse sweating and salivation were reported only if present or not. The core temperature was determined using a probe (1 mm diameter) that was gently inserted after lubrication with liquid Vaseline into the rectum of the mouse (to about 2 cm) and left in position until the temperature stabilised (about 10 s). The probe was connected to a digital thermometer. Spontaneous aggressive response was measured based on the number of times a mouse bit a grey cloth put in front of its snout. During the test, each mouse was free to move within the cage. In the case of stimulated aggressiveness, each mouse was manually restrained and held in a supine position following which an object was brought near the mouth. For both spontaneous and stimulated aggressive behaviour tests, a grey cloth was placed in front of the nose of each mouse 10 consecutive times (score 0/10 not aggressive, score 10/10 very aggressive). Convulsions were defined as a loss of righting reflexes for at least 5 s, combined with the presence of body tremors and clonic or tonic limb movements. Deaths caused by 4-4’-DMAR injection occurring during the observation period (5 h) were also reported as frequency (%) and time of death (min). Experiments were conducted inside the LARP (Centralised Preclinical Research Laboratory, University of Ferrara, Ferrara, Italy) in a thermo-stated (temperature 20–22 °C, humidity about 45–55%) and light controlled (about 150 lux) room, in which there was a background noise of about 40 ± 4 dB. The experiments, conducted in blind by trained observers working together in pairs, were videotaped and eventually analysed off-line by a different trained operator. The experiments were performed between 8:30 a.m. and 2:00 p.m.
Sweating and salivation were expressed as frequency (e.g., % of animals that developed symptoms); psychomotor agitation was expressed as frequency (% of animals) and duration (total time in mins). Core temperature values were expressed as the difference between control temperature (before injection) and temperature following drug administration (Δ°C). […]

[1] = 10 mg/kg i.p., n=4 mice (animals of the urine excretion study)

With Cc1ccc(C2OC(N)=NC2C)cc1 (stereo not drawn) [cis-4,4’-DMAR, 4-methyl-5-(4-methylphenyl)-4,5-dihydrooxazol-2-amine] the “Psychomotor agitation Frequency % (n° of mice)” value (1 mg/kg i.p., n=6 mice) was “ineffective”, the “Psychomotor agitation Duration” value (3 mg/kg i.p., n=6 mice) was 54.2 ± 10.30 min and the “Psychomotor agitation Frequency % (n° of mice)” value (3 mg/kg i.p., n=6 mice) was 100% (6). The “Psychomotor agitation Latency” value (3 mg/kg i.p., n=6 mice) was 61.2 ± 6.30 min, the “Psychomotor agitation, start of effect” value (10 mg/kg alone, mice) was “about thirty” and the “Psychomotor agitation Duration” value [1] was 125.0 ± 10.12 min. For the same compound, the “Psychomotor agitation Frequency % (n° of mice)” value [1] was 100% (4), the “Psychomotor agitation Latency” value [1] was 26.4 ± 6.25 min and the “Psychomotor agitation Duration” value (10 mg/kg i.p., n=6 mice) was 121.0 ± 12.35 min. The “Psychomotor agitation Duration (min)” value (10 mg/kg i.p., n=6 mice) was 121.0 ± 12.35 ^a min, the “Psychomotor agitation Frequency % (n° of mice)” value (10 mg/kg i.p., n=6 mice) was 100% (6) and the “Psychomotor agitation Latency” value (10 mg/kg i.p., n=6 mice) was 28.2 ± 7.20 min. The “Psychomotor agitation Latency (min)” value (10 mg/kg i.p., n=6 mice) was 28.2 ± 7.20 ^a min, the “Psychomotor agitation Frequency % (n° of mice)” value (10 mg/kg i.p., n=6 mice, listed as (±)cis-4,4′-DMAR) was 100% and the “Psychomotor agitation Duration (min)” value (30 mg/kg i.p., n=6 mice) was 235.1 ± 15.25 ^ab min. The “Psychomotor agitation Frequency % (n° of mice)” value (30 mg/kg i.p., n=6 mice) was 100% (6), the “Psychomotor agitation Latency (min)” value (30 mg/kg i.p., n=6 mice) was 3.2 ± 0.25 ^ab min and the “Psychomotor agitation Duration (min)” value (60 mg/kg i.p., n=6 mice) was 280.1 ± 12.35 ^ab min. The “Psychomotor agitation Frequency % (n° of mice)” value (60 mg/kg i.p., n=6 mice) was 100% (6), the “Psychomotor agitation Latency” value (60 mg/kg i.p., n=6 mice) was 2.2 ± 0.15 min and the “Psychomotor agitation Latency (min)” value (60 mg/kg i.p., n=6 mice) was 2.2 ± 0.15 ^ab min. The “Psychomotor agitation, dose range in which the effect was significant” value (i.p., mice, tested 0.1–60 mg/kg) was 3 to 60 mg/kg.

Reference: paper PMC8395767, “Worsening of the Toxic Effects of (±)Cis-4,4′-DMAR Following Its Co-Administration with (±)Trans-4,4′-DMAR: Neuro-Behavioural, Physiological, Immunohistochemical and Metabolic Studies in Mice” (International Journal of Molecular Sciences, 2021)
